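Each compound was tested at five concentrations against cells in 96-well plates for 48 hours. Definition used: TGI = concentration required for complete inhibition of growth.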
How the values were obtained:
Assay in all cases: inhibition of tumour cell growth, NCI panel, 48 h
[1] = test system: ACHN renal
[2] = test system: EKVX NSCLC
[3] = test system: HS 578T breast
[4] = test system: LOX IMVI melanoma
[5] = test system: MALME-3M melanoma
[6] = test system: NCI-H460 lung
[7] = test system: NCI-H522 lung
[8] = test system: SF-539 CNS
[9] = test system: SNB-19 CNS
[10] = test system: SW-620 colon

SMILES: NS(=O)(=O)c1nc(S(=O)(=O)O)c2[nH]cnc2n1
- TGI [1]: > 100 µM
- TGI [2]: > 100 µM
- TGI [3]: > 100 µM
- TGI [4]: > 100 µM
- TGI [5]: > 100 µM
- TGI [6]: > 100 µM
- TGI [7]: > 100 µM
- TGI [8]: > 100 µM
- TGI [9]: > 100 µM
- TGI [10]: > 100 µM

SMILES: COc1cc2cc(C(=O)N3CC(COS(C)(=O)=O)c4ccc(NC(=O)OCc5ccccc5)cc43)[nH]c2c(OC)c1OC (stereo not given)
- TGI [1]: > 100 µM
- TGI [2]: > 100 µM
- TGI [3]: > 100 µM
- TGI [4]: > 100 µM
- TGI [5]: > 100 µM
- TGI [6]: > 100 µM
- TGI [7]: > 100 µM
- TGI [8]: > 100 µM
- TGI [9]: > 100 µM
- TGI [10]: > 100 µM

SMILES: C(/C=N/NC1=NCCCCN1)=N\NC1=NCCCCN1
- TGI [1]: > 100 µM
- TGI [2]: > 100 µM
- TGI [3]: > 100 µM
- TGI [4]: > 100 µM
- TGI [5]: > 100 µM
- TGI [6]: > 100 µM
- TGI [7]: > 100 µM
- TGI [8]: > 100 µM
- TGI [9]: > 100 µM
- TGI [10]: > 100 µM

SMILES: Cc1cc(-n2nnc(C(=O)O)c2-c2ccccc2)c2ccc(Cl)cc2n1
- TGI [1]: > 100 µM
- TGI [2]: > 100 µM
- TGI [3]: > 100 µM
- TGI [4]: > 100 µM
- TGI [5]: > 100 µM
- TGI [6]: > 100 µM
- TGI [7]: > 100 µM
- TGI [8]: > 100 µM
- TGI [9]: > 100 µM
- TGI [10]: > 100 µM

SMILES: C=C(C(=O)O[C@H]1C/C(C)=C/CC/C(CO)=C/[C@H]2C(=O)OC(=C)[C@H]12)C(O)CO (stereo not given in full)
- TGI [1]: 24.8 µM
- TGI [2]: 36.5 µM
- TGI [3]: 57.9 µM
- TGI [4]: 36 µM
- TGI [5]: 10.7 µM
- TGI [6]: 31.6 µM
- TGI [7]: 3.3 µM
- TGI [8]: 10.4 µM
- TGI [9]: 43.3 µM
- TGI [10]: 14.4 µM

SMILES: C[C@@H]1[C@@H](C)C(c2ccccc2)O[Si]1(C(C)(C)C)C(C)(C)C (stereo not given in full)
- TGI [1]: 31.5 µM
- TGI [2]: 33.4 µM
- TGI [3]: 42.6 µM
- TGI [4]: 30.9 µM
- TGI [5]: 37 µM
- TGI [6]: 32.2 µM
- TGI [7]: 28.7 µM
- TGI [8]: 30.7 µM
- TGI [9]: 18.3 µM
- TGI [10]: 34.9 µM

SMILES: c1nc(NCCc2cnc[nH]2)c2[nH]cnc2n1
- TGI [1]: > 100 µM
- TGI [2]: > 100 µM
- TGI [3]: > 100 µM
- TGI [4]: > 100 µM
- TGI [5]: > 100 µM
- TGI [6]: > 100 µM
- TGI [7]: > 100 µM
- TGI [8]: > 100 µM
- TGI [9]: > 100 µM
- TGI [10]: > 100 µM

SMILES: O=C1CCCNn2c(nc3ncccc3c2=O)N1
- TGI [1]: > 100 µM
- TGI [2]: > 100 µM
- TGI [3]: > 100 µM
- TGI [4]: > 100 µM
- TGI [5]: > 100 µM
- TGI [6]: > 100 µM
- TGI [7]: > 100 µM
- TGI [8]: > 100 µM
- TGI [9]: > 100 µM
- TGI [10]: > 100 µM

SMILES: COC(=O)C1CC2(C)C=CC1N(C(=O)OCc1ccccc1)C2 (stereo not given)
- TGI [1]: > 100 µM
- TGI [2]: > 100 µM
- TGI [3]: > 100 µM
- TGI [4]: > 100 µM
- TGI [5]: > 100 µM
- TGI [6]: > 100 µM
- TGI [7]: > 100 µM
- TGI [8]: > 100 µM
- TGI [9]: > 100 µM
- TGI [10]: > 100 µM

SMILES: O=C(/C(=C(/O)c1ccccc1)c1nc2ccccc2sc1=O)c1ccccc1
- TGI [1]: > 100 µM
- TGI [2]: > 100 µM
- TGI [3]: > 100 µM
- TGI [4]: > 100 µM
- TGI [5]: > 100 µM
- TGI [6]: 30.5 µM
- TGI [7]: 68 µM
- TGI [8]: 75 µM
- TGI [9]: > 100 µM
- TGI [10]: > 100 µM

SMILES: COc1cc(/C=C2\CC/C(=C\c3cc(OC)c(O)c(OC)c3)C2=O)cc(OC)c1O
- TGI [1]: 6.58 µM
- TGI [2]: 16.5 µM
- TGI [3]: 15.8 µM
- TGI [4]: 6.26 µM
- TGI [5]: 1.74 µM
- TGI [6]: > 100 µM
- TGI [7]: 2.75 µM
- TGI [8]: > 100 µM
- TGI [9]: > 100 µM
- TGI [10]: > 100 µM

SMILES: O=C1c2cc(Cc3ccccc3)c(=O)c(Cc3ccccc3)cc2C(=O)c2cc(Cc3ccccc3)c(=O)c(Cc3ccccc3)cc21
- TGI [1]: > 100 µM
- TGI [2]: > 100 µM
- TGI [3]: > 100 µM
- TGI [4]: > 100 µM
- TGI [5]: > 100 µM
- TGI [6]: > 100 µM
- TGI [7]: > 100 µM
- TGI [8]: > 100 µM
- TGI [9]: > 100 µM
- TGI [10]: > 100 µM

SMILES: CC1CC[C@@]2(OC1)O[C@H]1[C@H](O)[C@H]3[C@@H]4CC[C@H]5C[C@@H](OC6OC(CO)C(OC7OC(CO)C(O)C(OC8OCC(O)C(O)C8O)C7OC7OC(CO)C(O)C(O)C7OC7OC(CO)C(O)C(O)C7O)C(O)C6O)[C@H](O)C[C@]5(C)[C@H]4CC[C@]3(C)[C@H]1[C@@H]2C (stereo not given in full)
- TGI [1]: > 10 µM
- TGI [2]: > 10 µM
- TGI [3]: > 10 µM
- TGI [4]: > 10 µM
- TGI [5]: > 10 µM
- TGI [6]: > 10 µM
- TGI [7]: 6.87 µM
- TGI [8]: > 10 µM
- TGI [9]: > 10 µM
- TGI [10]: > 10 µM

SMILES: Cc1cc(C)c2c(c1)CC1(Cc3cc(C)c(C)cc3C1=O)C2=O (stereo not given)
- TGI [1]: > 100 µM
- TGI [2]: > 100 µM
- TGI [3]: > 100 µM
- TGI [4]: > 100 µM
- TGI [5]: > 100 µM
- TGI [6]: > 100 µM
- TGI [7]: > 100 µM
- TGI [8]: > 100 µM
- TGI [9]: > 100 µM
- TGI [10]: > 100 µM

SMILES: CCOC(=O)C1CC(C(=O)c2ccccc2)N2c3ccccc3-c3ccccc3C12 (stereo not given)
- TGI [1]: > 100 µM
- TGI [2]: > 100 µM
- TGI [3]: 97.2 µM
- TGI [4]: > 100 µM
- TGI [5]: > 100 µM
- TGI [6]: > 100 µM
- TGI [7]: > 100 µM
- TGI [8]: > 100 µM
- TGI [9]: > 100 µM
- TGI [10]: > 100 µM

SMILES: CSC(SC)=C(C#N)C(=O)Nc1cccc(Cl)c1
- TGI [1]: > 100 µM
- TGI [2]: > 100 µM
- TGI [3]: > 100 µM
- TGI [4]: > 100 µM
- TGI [5]: > 100 µM
- TGI [6]: > 100 µM
- TGI [7]: 43.8 µM
- TGI [8]: > 100 µM
- TGI [9]: > 100 µM
- TGI [10]: > 100 µM

— PubChem BioAssay (NCI)
